Reference: patent publication US4563478A, “Method of tranquilizing” (priority 1981, dated 1986)

Key:
[1] = orally or parenterally; cited from earlier work
[2] = system: Schizosacch. pombe P1; test: Generic mutation; settings: 1000-100-10 mcg/plate
[3] = system: Plasmatic Prolactin Levels (PRL); test: Effect of compound (V) administered intravenously to the rat on plasmatic prolactin levels (PRL); type: in vivo
Text: 4. Effect of Compound (V) Administered Intravenously to the Rat, on the Plasmatic Prolactin Levels (PRL)

[4] = system: Spinal Medulla of the Cat; test: Effect on the spinal medulla of the cat; type: in vivo; settings: 3-30 mg/kg i.v.
[5] = system: animals (Rat, Mouse); test: Acute toxicity, symptoms observed in the animals (rat, mouse); type: in vivo
Procedure: Observation period: 14 days
(+) from 500 mg/kg upwards, the animals show sedation symptoms.

[6] = system: cGMP in the rat cerebellum; test: Effect on the cGMP levels in the rat cerebellum; type: in vivo; settings: i.v., 1 hour after administration, saline = 100
Procedure: The cGMP is measured 1 hour after administration.

[7] = Acute toxicity, rat; settings: in vivo, observation 14 days, read-out: DL50
Text: (§1) |Observation period: 14 days

[8] = system: EEG in Rabbits; type: in vivo
Procedure: At doses of 100 and 50 mg/kg i.v., electrical activity becomes evidently synchronous 10 minutes after administration, and lasts for about 3 hours. […] After 4 hours, behaviour and EEG become normal.

[9] = system: Sacch. cerevisiae D4; test: Genetic conversion; settings: 1000-100-10 mcg/plate
[10] = Acute toxicity, mouse; settings: in vivo, observation 14 days, read-out: DL50
Text: as §1

[11] = system: salmonella thyphimurium, 5 different strains; test: Mutagenesis (Salmonella, 5 different strains); settings: 1000-100-10 mcg/plate
Text: Mutagenesis (salmonella thyphimurium, 5 different strains): 1000-100-10 mcg/plate: negative.

[12] = Sub-acute toxicity, 4 weeks; type: in vivo; settings: daily oral and intra-peritoneal 10, 20 and 40 mg/kg/day
Procedure: After daily oral and intra-peritoneal administration of 10,20 and 40 mg/kg/day of compound (V) for 4 weeks, no effect is observed on mortality, body weight, alimentation, hematological or urinary data, autoptic examination, weight or histology of the organs.

[13] = line marked (+), route not given

Q: Which “crossing of the blood-brain barrier (GABA)” value [1] does the source give for `NCCCC(=O)O` [GABA, gamma-amino butyric acid] here?
A: Its value is “does not cross the blood-brain barrier”.

Q: With `O=C(O)CCCNCCC(=O)O` [Compound (V), N-β-carboxyethyl-γ-aminobutyric acid] as the compound, how does the Generic mutation [2] read?
A: Its Generic mutation is “negative”.

Q: And the PRL levels ([3]; 100 mg/kg i.v., 0 min)?
A: Its PRL levels is 4 ng/mL.

Q: And the PRL levels ([3]; 100 mg/kg i.v., 15 min)?
A: Its PRL levels is 18 ± 5 ng/mL.

Q: And the PRL levels ([3]; 100 mg/kg i.v., 30 min)?
A: The PRL levels was 4 ± 6 ng/mL.

Q: What about the PRL levels ([3]; 100 mg/kg i.v., 60 min) of the same compound?
A: Its PRL levels is 4 ng/mL.

Q: What about the PRL levels ([3]; 200 mg/kg i.v., 0 min) of the same compound?
A: Its PRL levels is 4 ng/mL.

Q: And the PRL levels ([3]; 200 mg/kg i.v., 15 min)?
A: Its PRL levels is 49 ± 10 ng/mL.

Q: What about the PRL levels ([3]; 200 mg/kg i.v., 30 min) of the same compound?
A: Its PRL levels is 5 ± 1 ng/mL.

Q: And the PRL levels ([3]; 200 mg/kg i.v., 60 min)?
A: Its PRL levels is 4 ng/mL.

Q: And the PRL levels ([3]; 300 mg/kg i.v., 0 min)?
A: Its PRL levels is 4 ng/mL.

Q: And the PRL levels ([3]; 300 mg/kg i.v., 15 min)?
A: Its PRL levels is 78 ± 5 ng/mL.

Q: And the PRL levels ([3]; 300 mg/kg i.v., 30 min)?
A: The PRL levels was 21 ± 8 ng/mL.

Q: What about the PRL levels ([3]; 300 mg/kg i.v., 60 min) of the same compound?
A: The PRL levels was 12 ng/mL.

Q: What about the “effect on the prolactin release” value ([3]; intravenous, short intervals after administration) of the same compound?
A: The value was “dose-dependent effect on the prolactin release”.

Q: And the “activity on the gamma-mononeuron” value [4]?
A: Its value is “dose-dependent reduction”.

Q: And the dorsal root potentials [4]?
A: The dorsal root potentials was “dose-dependent reduction”.

Q: And the “mono and polysynaptic reflexes of the ventral root” value [4]?
A: The value was “dose-dependent reduction”.

Q: And the “dose from which the animals show sedation symptoms” value ([5]; in vivo, po, 20160 min)?
A: The value was no less than 500 mg/kg.

Q: What about the symptoms before death ([5]; intra-peritoneal (++)) of the same compound?
A: The symptoms before death was “ataxia, lack of reaction to stimuli, and dyspnea”.

Q: What about the “cGMP: Relative levels” value ([6]; 1 mg/kg) of the same compound?
A: The value was 95 ± 8.

Q: And the “cGMP: Relative levels” value ([6]; 10 mg/kg)?
A: Its value is 68 ± 4.

Q: What about the “cGMP: Relative levels” value ([6]; 30 mg/kg) of the same compound?
A: Its value is 60 ± 5.

Q: And the “cGMP: Relative levels” value ([6]; 100 mg/kg)?
A: Its value is 74 ± 6.

Q: What about the LD50 at 336 h ([7]; ip, intra-peritoneal) of the same compound?
A: Its LD50 at 336 h is 877 mg/kg.

Q: What about the LD50 at 336 h [7, 13] of the same compound?
A: Its LD50 at 336 h is 1000 mg/kg.

Q: And the LD50 at 336 h ([7]; oral)?
A: Its LD50 at 336 h is 1000 mg/kg.

Q: What about the “basal activity, cortical graph” value ([8]; 100 and 50 mg/kg i.v.) of the same compound?
A: Its value is “replaced by a slow continuous activity prevalent on the cortical graph”.

Q: What about the “behaviour (sedation)” value ([8]; 100 and 50 mg/kg i.v.) of the same compound?
A: The value was “sedated, but responds to stimuli”.

Q: What about the “desynchronisation of cortical activity by vibro-stimulation and pain stimuli” value ([8]; 100 and 50 mg/kg i.v.) of the same compound?
A: Its value is “do not desynchronise cortical activity”.

Q: What about the “duration of synchronous electrical activity” value ([8]; 100 and 50 mg/kg i.v.) of the same compound?
A: The value was “about 3 hours”.

Q: And the “thalamus and hippocampus activity at 4-5 Hz” value ([8]; 100 and 50 mg/kg i.v.)?
A: The value was “replaced by an irregular graph and many slow waves”.

Q: What about the “time after administration at which electrical activity becomes synchronous” value ([8]; 100 and 50 mg/kg i.v.) of the same compound?
A: Its value is 10 min.

Q: What about the “time after which behaviour and EEG become normal” value ([8]; 100 and 50 mg/kg i.v.) of the same compound?
A: The value was 4 h.

Q: What about the sedative activity ([8]; conclusion from EEG in rabbits, i.v.) of the same compound?
A: Its sedative activity is “demonstrates sedative activity”.

Q: And the “overcoming of the hematoencephalic barrier” value ([8]; rabbit, in vivo, iv)?
A: Its value is “overcomes the hematoencephalic barrier”.

Q: And the Genetic conversion [9]?
A: Its Genetic conversion is “doubtful”.

Q: What about the “mutagenic activity for the gene ADE 2” value [9] of the same compound?
A: Its value is “not for the gene ADE 2”.

Q: What about the “mutagenic activity for the gene TPR 5” value ([9]; only in the presence of a microsomial activator) of the same compound?
A: Its value is “a slight increase in mutagenic activity”.

Q: What about the LD50 at 336 h ([10]; ip, intra-peritoneal) of the same compound?
A: Its LD50 at 336 h is 783 mg/kg.

Q: And the LD50 at 336 h [10, 13]?
A: Its LD50 at 336 h is 1000 mg/kg.

Q: And the LD50 at 336 h ([10]; oral)?
A: The LD50 at 336 h was 1000 mg/kg.

Q: And the Mutagenesis [11]?
A: Its Mutagenesis is “negative”.

Q: And the effect on alimentation [12]?
A: The effect on alimentation was “no effect”.

Q: What about the “effect on autoptic examination” value [12] of the same compound?
A: Its value is “no effect”.

Q: And the “effect on body weight” value [12]?
A: The value was “no effect”.

Q: What about the “effect on hematological or urinary data” value [12] of the same compound?
A: Its value is “no effect”.

Q: And the effect on mortality [12]?
A: The effect on mortality was “no effect”.

Q: What about the “effect on weight or histology of the organs” value [12] of the same compound?
A: The value was “no effect”.
